pIC50: −log10 of the molar value. Where “and” joins values, the source holds several entries; their conditions need not be identical. Identical values can stand only once.
biological target: T1, Tyrosine-protein kinase SYK [355-635] (Homo sapiens, UniProt P43405); assay: SYK assay_HTRF
T1 construct: 355-635

Row | SMILES | pIC50
1 | CCN(c1nc(Nc2ccc(C(=O)NC)cc2)ncc1F)c1cccc2[nH]ncc12 [GTC000271A] | 8.18
2 | CCN(c1nc(Nc2cccc(S(N)(=O)=O)c2)ncc1Cl)c1cccc2[nH]ncc12 [GTC000355A] | 7.24
3 | Cc1noc(NC(=O)Cc2ccc(Nc3nccc(Nc4cccc5[nH]ncc45)n3)cc2)c1C [GTC000205A] | 6.03
4 | O=C1Cc2ccc(Nc3nccc(Nc4cccc5[nH]ncc45)n3)cc2N1 [GTC000154A] | 7.65 and 7.38
5 | CCN(c1nc(Nc2cccc(S(=O)(=O)NC3CC3)c2)ncc1F)c1cccc2[nH]ncc12 [GTC000342A] | 7.47
6 | NS(=O)(=O)c1cccc(Nc2ncc(F)c(N(CCCO)c3cccc4[nH]ncc34)n2)c1 [GTC000284A] | 8.06
7 | CCN(c1nc(Nc2ccc3c(cnn3C(C)C)c2)ncc1F)c1cccc2[nH]ncc12 [GTC000305A] | 7.53 and 8.15
8 | NC(=O)COc1ccc(Nc2nccc(Nc3cccc4[nH]ncc34)n2)cc1 [GTC000196A] | 6.64
9 | CCN(c1nc(Nc2ccc3c(c2)CC(=O)N3)ncc1F)c1cccc2[nH]ncc12 [GTC000272A] | 8.16
10 | CCN(CC)CCCN(c1ccnc(Nc2ccc3c(c2)S(=O)(=O)NC3)n1)c1cccc2[nH]ncc12 [GTC000291A] | 7.94 and 8.14
11 | Cc1ccc(S(=O)(=O)Nc2ccc(Nc3nccc(Nc4cccc5[nH]ncc45)n3)cc2)cc1 [GTC000220A] | 6.04
12 | CCN(c1nc(Nc2ccc3c(c2)S(=O)(=O)N(CC)C3)ncc1F)c1cccc2[nH]ncc12 [GTC000307A] | 7.79 and 7.85
13 | COCCCN(c1nc(Nc2ccc3c(c2)COC(=O)N3)ncc1F)c1cccc2[nH]ncc12 [GTC000273A] | 8.17
14 | NCCCCCN(c1ccnc(Nc2ccc3[nH]c(=O)[nH]c3c2)n1)c1cccc2[nH]ncc12 [GTC000269A] | 8.16
15 | CCN(c1nc(Nc2ccc3c(c2)COC(=O)N3)ncc1F)c1cccc2[nH]ncc12 [GTC000268A] | 8.17
16 | CC(C)ONS(=O)(=O)c1cccc(Nc2nccc(Nc3cccc4[nH]ncc34)n2)c1 [GTC000178A] | 6.16

Row | SMILES | pIC50
17 | Cc1ncoc1-c1cccc(Nc2ncc(F)c(N(C)c3cccc4[nH]ncc34)n2)c1 [GTC000316A] | 7.79
18 | c1cc(Nc2ccnc(Nc3ccc(N4CCOCC4)cc3)n2)c2cn[nH]c2c1 [GTC000129A] | 6.66
19 | CCN(c1nc(Nc2ccc3cn[nH]c3c2)ncc1F)c1cccc2[nH]ncc12 [GTC000247A] | 8.37
20 | CCN(c1nc(Nc2ccc3c(c2)NC(=O)CO3)ncc1F)c1cccc2[nH]ncc12 [GTC000357A] | 7.17
21 | c1cc(Nc2ccnc(Nc3cccc4[nH]ncc34)n2)c2cn[nH]c2c1 [GTC000113A] | 6.80
22 | O=S1(=O)NCc2cc(Nc3nccc(Nc4cccc5[nH]ncc45)n3)ccc21 [GTC000153A] | 7.37 and 7.07 and 7.27
23 | Cc1cc(NC(=O)Cc2ccc(Nc3nccc(Nc4cccc5[nH]ncc45)n3)cc2)no1 [GTC000206A] | 6.19
24 | CN(c1nc(Nc2ccc(C(N)=O)cc2)ncc1F)c1cccc2[nH]ncc12 [GTC000351A] | 7.44
25 | O=C1CNC(=O)N1c1cccc(Nc2nccc(Nc3cccc4[nH]ncc34)n2)c1 [GTC000167A] | 6.63
26 | COCCCN(c1ccnc(Nc2ccc3c(c2)S(=O)(=O)NC3)n1)c1cccc2[nH]ncc12 [GTC000236A] | 8.57 and 8.83 and 8.31 and 8.36
27 | Cc1cc(=O)[nH]c2cc(Nc3nccc(Nc4cccc5[nH]ncc45)n3)ccc12 [GTC000109A] | 7.27
28 | CCN(c1nc(Nc2cc(S(=O)(=O)NCC3CCCO3)ccc2OC)ncc1F)c1cccc2[nH]ncc12 (configuration not stated) [GTC000373A] | 6.20
29 | COCCN(c1ccnc(Nc2cccc(-c3ocnc3C)c2)n1)c1cccc2[nH]ncc12 [GTC000323A] | 7.67
30 | NCCN(c1nc(Nc2ccc3c(c2)S(=O)(=O)CC3)ncc1F)c1cccc2[nH]ncc12 [GTC000371A] | 6.65
31 | O=c1[nH]c2ccc(Nc3nccc(Nc4cccc5[nH]ncc45)n3)cc2[nH]1 [GTC000115A] | 7.11
32 | COCCCN(c1nc(Nc2ccc3[nH]c(=O)[nH]c3c2)ncc1F)c1cccc2[nH]ncc12 [GTC000263A] | 8.31

Source: BindingDB's records for doi:10.7270/Q2CV4GM1 (D3R/Abbott, 2015)
